Experiment [1] concerns SF162 pseudovirus (clade B). The experiment can be described thus: HIV-1 neutralization assay (Env-pseudotyped virus, Luc reporter). The class given is cell-based.
Experiment [2] relates to Q769.h5 pseudovirus (clade A). The description is as above. It counts as cell-based.
In experiment [3] the test system is Du156 pseudovirus (clade C). The description is as above. The class given is cell-based.
The test system of experiment [4] is SS1196.1 pseudovirus (clade B). Described as above. The class given is cell-based.
Experiment [5] has as its target recombinant hemagglutinin (HA) (A/New Caledonia/20/99). The experiment can be described thus: SPR analysis of captured CR6261. The class given is binding, influenza H1N1. Particulars: HA as analyte, bivalent analyte kinetics fit, read-out: equilibrium dissociation constant, KD.
In the next experiment the test system is HIV-1 BaL. Particulars: topical gel formulation; CCR5-using HIV-1 BaL; Veselinovic, et al.; cited from earlier work.
The subject of experiment [6] is SF162 pseudovirus (clade B). Particulars: reported by Wu et al. (16); cited from earlier work.
In experiment [7] the test system is Q769.h5 pseudovirus (clade A). Conditions: reported by Wu et al. (16); cited from earlier work.
The test system of experiment [8] is Du156 pseudovirus (clade C). Conditions: reported by Wu et al. (16); cited from earlier work.
In the next experiment the target is FcγRI (Homo sapiens, UniProt P12314). Description: FcγRI binding in ELISA and in flow cytometry. Conditions: data not shown.
Where [9] appears, read: TZM-b1 cells, TFV concentration in combination, mean ± SEM, read-out: IC50 in a respective combination with VRC01p.
Setting [10] is: TZM-b1 cells, TFV, mean ± SEM, read-out: IC50 when used individually.
[11] abbreviates: TZM-b1 cells, GRFT, MVC concentration in combination, mean ± SEM, read-out: IC50 in a respective combination with VRC01p.
Where [12] appears, read: TZM-b1 cells, GRFT, MVC, mean ± SEM, read-out: IC50 when used individually.
[13] abbreviates: read-out: IC50 in a respective combination with VRC01p, TZM-b1 cells, GRFT, MVC concentration in combination, mean ± SEM.
Setting [14] is: read-out: IC50 when used individually, TZM-b1 cells, GRFT, MVC, mean ± SEM.

Like-named read-outs stand apart in the source and are kept apart here.

FcγRI, sequence (P12314 16-374, species assumed): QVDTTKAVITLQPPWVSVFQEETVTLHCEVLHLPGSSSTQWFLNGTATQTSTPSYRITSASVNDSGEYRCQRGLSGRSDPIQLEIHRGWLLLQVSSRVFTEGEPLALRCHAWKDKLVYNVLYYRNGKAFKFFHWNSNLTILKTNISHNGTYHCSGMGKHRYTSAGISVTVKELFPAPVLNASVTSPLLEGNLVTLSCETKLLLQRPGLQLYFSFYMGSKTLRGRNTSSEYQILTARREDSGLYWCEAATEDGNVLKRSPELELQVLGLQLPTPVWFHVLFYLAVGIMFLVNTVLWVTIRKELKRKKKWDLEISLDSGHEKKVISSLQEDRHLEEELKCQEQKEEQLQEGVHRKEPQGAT

Turning to `C[C@H](Cn1cnc2c(N)ncnc21)OCP(=O)(O)O` [TFV, tenofovir], the IC50 in experiment [1] (setting [9]) was found to be 880 ± 400 nM; in experiment [1] (setting [10]), 2700 ± 1020 nM; in [2] (setting [9]), 2090 ± 390 nM; in [2] (setting [10]), 21200 ± 3530 nM; in experiment [3] (setting [9]) it was 60 nM; in experiment [3] (setting [10]) it was 7140 ± 1910 nM. For the same compound, the results for the IC50 in [4] (setting [9]) and in experiment [4] (setting [10]) were 1920 ± 340 nM and 7650 ± 2390 nM, respectively. For the same compound, the “dose reduction index (DRI) in a respective combination with VRC01p” value (shortened to “dose reduction index (DRI)”) in [1] (mean ± SEM) is on record as 2.10 ± 0.34; in [2] (mean ± SEM) it was 8.40 ± 1.41; in [3] (mean ± SEM) it was 3.01 ± 0.65; in experiment [4] (mean ± SEM), 3.76 ± 0.68.

Regarding “CR6261: anti-influenza bnMAb CR6261 IgG1 (PDB ID: 3GBM) expressed in N. benthamiana”, the Kd in experiment [5] stood at 0.055 ± 0.0036 nM.

Consider “VRC01: CD4-binding site (CD4bs)-specific bnMAb isolated from a slowly progressing HIV-1 infected donor”, for which the “protection against vaginal challenge” value in the experiment on HIV-1 BaL was “protected”.

For “VRC01HEK: HEK293F cell-produced bnMAb VRC01”, the “VRC01HEK IC50” value in [6] is 0.139 mg/L; in experiment [7] it was 0.084 mg/L; in experiment [8], 0.089 mg/L.

On to “VRC01p: Nicotiana plant-expressed anti-HIV-1 bnMAb VRC01 IgG1 from the L-(KP6pp)-H construct”, for which, in the experiment with FcγRI, the “binding to FcγRI compared with a human IgG1 isotype control” value is “nearly an order of magnitude less”.

Regarding griffithsin [GRFT], the IC50 in [1] (setting [11]) turned out to be 0.1 ± 0.03 nM; in experiment [1] (setting [12]), 0.59 ± 0.34 nM; in [2] (setting [11]), 0.79 ± 0.19 nM; in [2] (setting [12]) it was 12.4 ± 2.88 nM; in experiment [3] (setting [11]), 0.003 ± 0.0004 nM; in experiment [3] (setting [12]), 0.02 ± 0.001 nM. Further, the IC50 in experiment [4] (setting [11]) was 0.01 ± 0.001 nM; in experiment [4] (setting [12]), 0.04 ± 0.01 nM. Besides, the “dose reduction index (DRI)” value was determined as 3.19 ± 1.16 in experiment [1] (mean ± SEM), 11.3 ± 2.95 in experiment [2] (mean ± SEM), 6.29 ± 0.66 in [3] (mean ± SEM) and 2.98 ± 0.72 in experiment [4] (mean ± SEM).

maraviroc [MVC]: the “dose reduction index (DRI)” value in [1] (mean ± SEM) is recorded as 4.21 ± 0.25; in experiment [2] (mean ± SEM), 4.40 ± 0.71; in experiment [3] (mean ± SEM) it was 5.93 ± 0.96; in experiment [4] (mean ± SEM), 5.06 ± 0.39. The IC50 was 18.3 ± 7.9 nM in experiment [1] (setting [13]); 54.9 ± 29.3 nM in experiment [1] (setting [14]); 5.27 ± 1.12 nM in [2] (setting [13]); 29.6 ± 7.75 nM in experiment [2] (setting [14]); 32.2 ± 11.5 nM in experiment [3] (setting [13]); 199 ± 40.4 nM in experiment [3] (setting [14]). For the same compound, the IC50 in experiment [4] (setting [13]) turned out to be 15.6 ± 8.87 nM; in experiment [4] (setting [14]) it was 96.4 ± 28.5 nM.

(Values after patent publication US10066238B2, “Methods for producing antibodies” (priority 2013, dated 2018).)
